Measured values reported in patent US12509460B2 (Skyhawk Therapeutics, Inc., priority 2019, dated 2025).
Read-outs that look alike come from different tables or passages of the source.

Legend:
[1] = Quantitative splicing assay (HTT), qPCR; format: cell-based, human; conditions: Homo sapiens, GM04724, 24 h, GM04724 lymphoblasts, read-out: HTT Splicing: E49-50 EC50
Summary of the method: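 Patient lymphoblasts (50,000 cells/well) dosed immediately after plating for 24 h at 2.5 uM to 0.15 nM in 0.1% DMSO. Lysed, cDNA made directly from cells, and inclusion of the intron 49 cryptic exon quantified by TaqMan qPCR.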

[2] = system: mHTT protein in GM04724 (CAG 70/20) Huntington's disease patient lymphoblast cells; assay: mHTT protein assay, 2B7-MW1 assay via Mesoscale Discovery (MSD); format: cell-based, human
Summary of the method: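 Patient lymphoblasts treated 48 h with compound from 10 μM to 0.6 nM. mHTT quantified by MSD 2B7-MW1 immunoassay, whose signal depends on polyQ expansion and HTT size. Viability measured on a replicate plate by CellTiter Glo.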

[3] = system: SMN FL and SMN Δ7 in spinal muscular atrophy (SMA) patient fibroblasts (GM03813, Coriell); assay: Quantitative splicing assay (SMN), qPCR; format: cell-based, human; conditions: Homo sapiens, Fibroblast, 24 h, read-out: SMN2 Splicing FL EC50
Experimental: Spinal muscular atrophy (SMA) patient fibroblasts (GM03813, Coriell) are plated in 96-well plates at 50,000 cells/well. […] Treated cells are lysed and cDNA synthesized using the Fast Advanced Cells-to-Ct kit (Thermofisher A35378) according to the manufacturer's instructions. 2 μL of each cDNA are used in qPCR reactions. […] Reactions are run in a Quant Studio 6 qPCR instrument with default settings.

[4] = system: SMN protein in spinal muscular atrophy (SMA) patient fibroblasts (GM03813, Coriell); assay: SMN protein assay, Mesoscale Discovery (MSD); format: cell-based, human; conditions: read-out: SMN2 protein EC50
Summary of the method: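 SMA patient fibroblasts (GM03813) seeded at 7000 cells/well and exposed to compound at 2.5 μM to 0.6 nM for 48 hours. Lysates assayed for SMN by MSD immunoassay, with absolute SMN amount calculated from a per-plate SMN standard curve (1 μg/ml to 19.5 pg/ml).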

[5] = system: MDR1 (P-gp); assay: Blood-brain-barrier (BBB) penetration potential via MDCK-MDR1 permeability assay; conditions: dog; for Papp A→B at 120 min, 5 μM: MDCK-MDR1, pH 7.4, MDCK-MDR1: Papp A-B; for Papp B→A at 120 min, 5 μM: MDCK-MDR1, pH 7.4, MDCK-MDR1: Papp B-A
[6] = system: MDR1-MDCK cell monolayers; assay: as above
[7] = system: MDR1; assay: as above; conditions: dog, MDCK-MDR1, pH 7.4, MDCK-MDR1: Efflux
[8] = GM04724 Huntington's disease patient lymphoblasts
[9] = SMA patient fibroblasts GM03813, 24 h, qPCR
[10] = SMA patient fibroblasts GM03813, 48 hours, MSD

Row | Structure (SMILES) | EC50 ([1]; qPCR) [nM] | EC50 [2, 8] [nM] | EC50 [3, 9] [nM] | EC50 [4, 10] [nM] | Papp A→B at 120 min, 5 μM ([5]; A-B direction) [×10⁻⁶ cm/s] | Papp B→A at 120 min, 5 μM ([5]; B-A direction) [×10⁻⁶ cm/s] | MDCK-MDR1: % Recov A-B ([6]; A-B direction) [%] | MDCK-MDR1: % Recov B-A ([6]; B-A direction) [%] | efflux ratio at 120 min, 5 μM ([7]; efflux ratio) | EC50 [1] [nM] | EC50 ([2]; GM04724 (CAG 70/20) Huntington's disease patient lymphoblasts) [nM] | EC50 ([3]; SMA patient fibroblasts (GM03813)) [nM] | EC50 ([4]; SMA patient fibroblasts (GM03813), 48 hours) [nM] | Papp A→B at 120 min, 5 μM ([5]; A-B) [×10⁻⁶ cm/s] | Papp B→A at 120 min, 5 μM ([5]; B-A) [×10⁻⁶ cm/s] | MDCK-MDR1: % Recov A-B ([6]; A-B) [%] | MDCK-MDR1: % Recov B-A ([6]; B-A) [%] | efflux ratio at 120 min, 5 μM [7]
1 | CN(c1ccc(-c2cc3ncccc3cc2O)nn1)[C@@H]1C[C@H]2CCC[C@H](N2)[C@@H]1F [Compound 78A, 7-(6-(((1S,2S,3R,5R)-2-fluoro-9-azabicyclo[3.3.1]nonan-3-yl)(methyl)amino)pyridazin-3-yl)quinolin-6-ol] | 16 to 50 | 16 to 50 | 51 to 100 | 16 to 50 | 2.19 | 50.5 | 74 | 89 | 23 | – | – | – | – | – | – | – | – | –
2 | CCN(c1ccc(-c2ccc(-c3cn[nH]c3)cc2O)nn1)[C@H]1C[C@@H]2CC[C@@H](N2)[C@H]1F [Compound 12B, 2-(6-(ethyl((1R,2R,3S,5S)-2-fluoro-8-azabicyclo[3.2.1]octan-3-yl)amino)pyridazin-3-yl)-5-(1H-pyrazol-4-yl)phenol] | 0.01 to 15 | 0.01 to 15 | 0.01 to 15 | 0.01 to 15 | 0.7 | 30.1 | 57 | 52 | 43 | – | – | – | – | – | – | – | – | –
3 | Cc1nc2cc(-c3ccc(N(C)[C@H]4C[C@@H]5CC[C@@H](N5)[C@H]4F)nn3)c(O)cc2s1 [Compound 115B, 5-(6-(((IR,2R,3S,5S)-2-fluoro-8-azabicyclo[3.2.1]octan-3-yl)(methyl)amino)pyridazin-3-yl)-2-methylbenzo[d]thiazol-6-ol] | – | – | – | – | – | – | – | – | – | 0.01 to 15 | 0.01 to 15 | 0.01 to 15 | 0.01 to 15 | 6.4 | 42.6 | 71 | 88 | 7
4 | CN(c1ccc(-c2ccc(-n3cnc(Cl)c3)cc2O)nn1)C1CC2CC(F)(F)C(C1)N2 (single isomer, unassigned) [Compound 37A] | 0.01 to 15 | 16 to 50 | 16 to 50 | 16 to 50 | 17.3 | 34.4 | 52 | 69 | 2 | – | – | – | – | – | – | – | – | –
5 | CN(c1ccc(-c2ccc(-c3ccccn3)cc2O)nn1)[C@H]1C[C@@H]2CCC[C@@H](N2)[C@H]1F [Compound 23B, 2-(6-(((1R,2R,3S,5S)-2-fluoro-9-azabicyclo[3.3.1]nonan-3-yl)(methyl)amino)pyridazin-3-yl)-5-(pyridin-2-yl)phenol] | 16 to 50 | 16 to 50 | 16 to 50 | 0.01 to 15 | 3.17 | 48.2 | 68 | 98 | 15 | – | – | – | – | – | – | – | – | –
6 | CN(c1ccc(-c2ccc(-c3ccn(C)n3)cc2O)nn1)[C@@H]1C[C@H]2CC[C@H](N2)[C@@H]1F (single isomer, unassigned) [Compound 36A] | 16 to 50 | 16 to 50 | 16 to 50 | 0.01 to 15 | 3.68 | 38.6 | 68 | 82 | 10 | – | – | – | – | – | – | – | – | –
7 | CN(c1ccc(-c2cc3ccncc3cc2O)nn1)[C@@H]1C[C@H]2CC[C@H](N2)[C@@H]1F (single isomer, unassigned) [Compound 87A] | 51 to 100 | 51 to 100 | 101 to 500 | 0.01 to 15 | 5.33 | 43.1 | 59 | 79 | 8 | – | – | – | – | – | – | – | – | –
8 | COc1cnc(-c2ccc(-c3ccc(N(C)[C@@H]4C[C@H]5CCC[C@H](N5)[C@@H]4F)nn3)c(O)c2)cn1 [Compound 29A, 2-(6-(((1S,2S,3R,5R)-2-fluoro-9-azabicyclo[3.3.1]nonan-3-yl)(methyl)amino)pyridazin-3-yl)-5-(5-methoxypyrazin-2-yl)phenol] | 16 to 50 | 16 to 50 | 501 to 10000 | 0.01 to 15 | 1.85 | 12.6 | 26 | 60 | 7 | – | – | – | – | – | – | – | – | –
9 | CN(c1ccc(-c2cc3occc(=O)c3cc2O)nn1)[C@H]1C[C@@H]2CC[C@@H](N2)[C@H]1F [Compound 43B, 7-(6-(((1R,2R,3S,5S)-2-fluoro-8-azabicyclo[3.2.1]octan-3-yl)(methyl)amino)pyridazin-3-yl)-6-hydroxy-4H-chromen-4-one] | 0.01 to 15 | 0.01 to 15 | 0.01 to 15 | 0.01 to 15 | 2.32 | 28.3 | 66 | 48 | 12 | – | – | – | – | – | – | – | – | –
10 | CN(c1ccc(-c2ccc(-n3nccn3)cc2O)nn1)[C@@H]1C[C@H]2CC[C@H](N2)[C@@H]1F [Compound 90A, 2-(6-(((1S,2S,3R,5R)-2-fluoro-8-azabicyclo[3.2.1]octan-3-yl)(methyl)amino)pyridazin-3-yl)-5-(2H-1,2,3-triazol-2-yl)phenol] | 0.01 to 15 | 0.01 to 15 | 0.01 to 15 | 0.01 to 15 | 6.97 | 22.5 | 41 | 69 | 3 | – | – | – | – | – | – | – | – | –
11 | C#Cc1ccc(-c2ccc(N(C)[C@@H]3C[C@H]4CC[C@H](N4)[C@@H]3F)nn2)c(O)c1 [Compound 10A, 5-ethynyl-2-(6-(((1S,2S,3R,5R)-2-fluoro-8-azabicyclo[3.2.1]octan-3-yl)(methyl)amino)pyridazin-3-yl)phenol] | 0.01 to 15 | 0.01 to 15 | 0.01 to 15 | 0.01 to 15 | 11.6 | 19 | 55 | 67 | 2 | – | – | – | – | – | – | – | – | –
12 | CN(c1ccc(-c2ccc(-n3ccnc3)cc2O)nn1)[C@H]1C[C@@H]2CC[C@@H](N2)[C@H]1F [Compound 4B, 2-(6-(((1R,2R,3S,5S)-2-fluoro-8-azabicyclo[3.2.1]octan-3-yl)(methyl)amino)pyridazin-3-yl)-5-(1H-imidazol-1-yl)phenol] | 0.01 to 15 | 0.01 to 15 | 0.01 to 15 | 0.01 to 15 | 2.82 | 49.7 | 87 | 85 | 18 | – | – | – | – | – | – | – | – | –
13 | CNC(=O)c1cc(O)c(-c2ccc(N(C)[C@H]3C[C@@H]4CC[C@@H](N4)[C@H]3F)nn2)cc1F [Compound 47B, 2-fluoro-4-(6-(((1R,2R,3S,5S)-2-fluoro-8-azabicyclo[3.2.1]octan-3-yl)(methyl)amino)pyridazin-3-yl)-5-hydroxy-N-methylbenzamide] | 51 to 100 | 51 to 100 | 51 to 100 | 16 to 50 | 1.26 | 49.8 | 101 | 120 | 40 | – | – | – | – | – | – | – | – | –
